# From PMC8467962, “Design and Synthesis of Water-Soluble and Potent MMP-13 Inhibitors with Activity in Human Osteosarcoma Cells” (International Journal of Molecular Sciences, 2021)
# What was measured:
# MMP-2 = molecular target: T1, MMP-2 (Homo sapiens, UniProt P08253); assay: MMP inhibition assay (MMP Inhibitor Profiling Kit, thiopeptide substrate), MMP-2; assay type: biochemical; conditions: catalytic domain, 37 °C, pH 7.5
# T1 construct: the catalytic domains of the corresponding MMP were incubated in triplicate; purchased Enzo Life Science International, Inc
# Method: (§1) MMP activity measurements were performed using an MMP Inhibitor Profiling Kit purchased from Enzo Life Science International, Inc. (Farmingdale, NY, USA), and following the manufacturer’s protocol with slight modifications. Proteolytic activity was measured using a thiopeptide substrate (Ac-PLG-[2-mercapto-4-methylpentanoyl]-LG-OC2H5) where the MMP cleavage site peptide bond has been replaced by a thioester bond. Hydrolysis of this bond by MMPs produces a sulfhydryl group that reacts with DTNB to form 2-nitro-5-thiobenzoic acid, which was detected by its absorbance at 414 nm (microplate photometer 90 Thermo Scientific Multiscan FC).
# Enzyme reactions were carried out at 37 °C in a 100 μL final volume of solutions, where the catalytic domains of the corresponding MMP were incubated in triplicate with at least seven concentrations of inhibitors. The assay buffer contained the following components: 50 mM HEPES, 10 mM CaCl2 95, 0.05% Brij-35, and 1 mM DTNB at pH 7.5. After addition of the substrate, the increase of absorbance was recorded in 1 min time intervals for 30 min. Data were plotted as OD versus time for each sample to obtain the reaction velocity (V) in OD per min. The percentage of residual activity for each compound was calculated using the following formula: % of remaining activity = (V in the presence of inhibitor/Vcontrol) × 100. An inhibitor, NNGH, was included as a prototypic control inhibitor. IC50 calculations in MMP-13 and MMP-2 for active compounds are shown in Supplementary Materials (Figure S9)
# The concentration of the compound that provided 50% inhibition of enzymatic activity (IC50) was determined by using semi-logarithmic dose–response plots (Graph Pad Prism 5.0 for Windows, Graph Pad Software Inc., San Diego, CA, USA, 2007).
# [1] = Thermodynamic solubility (shake flask method); assay type: physicochemical; conditions: phosphate buffer, aqueous buffer, thermodynamic from solid; PBS pH 7.4, shake flask, room temperature; read-out: Experimental Water Solubility LogS (converted)
# Method: The samples were sonicated for 10 min and shaken overnight at 800 rpm (FB15013 TopMix, Fischer Scientific, Waltham, MA, USA) at room temperature. A first phase separation of supernatant and undissolved solid was performed by centrifugation at 5000 rpm for 20 min (Biofuge primo R). The supernatant was then transferred into Eppendorf tubes for a second centrifugation. An adequate dilution was made using the particle-free supernatant and the concentration quantified by LC-HRMS using a 4-point calibration curve (Agilent 1260 Infinity II).
# PART A. Calibration curves of compounds for solubility
# 9e, 10a-e), 4-points calibration curves were made for each compound. Calibrations curves were obtained using four different concentrations of the corresponding compound (0.1 mg/mL, 0.01 mg/mL, 0.001 mg/mL and 0.0001 mg/mL). All samples were prepared in DMSO and measured in a LC-HRMS (Agilent 1260 Infinity II).
# Figure S1. Calibration curves of all active compounds (solubility studies) (1, 2, 9a, 9e, 10a-e) […]
# MMP-13 = molecular target: T2, MMP-13 (Homo sapiens, UniProt P45452); assay: MMP inhibition assay (MMP Inhibitor Profiling Kit, thiopeptide substrate), MMP-13; assay type: biochemical; conditions: catalytic domain, 37 °C, pH 7.5
# T2 construct: the catalytic domains of the corresponding MMP were incubated in triplicate; purchased Enzo Life Science International, Inc
# Method: as §1, with “Proteolytic activity was measured using a thiopeptide substrate (Ac-PLG-[2-mercapto-4-methylpentanoyl]-LG-OC2H5) where the MMP cleavage site peptide bond has been replaced by a thioester bond.” left out
# The assay buffer contained the following components: 50 mM HEPES, 10 mM CaCl2 95, 0.05% Brij-35, and 1 mM DTNB at pH 7.5. After addition of the substrate, the increase of absorbance was recorded in 1 min time intervals for 30 min. Data were plotted as OD versus time for each sample to obtain the reaction velocity (V) in OD per min. The percentage of residual activity for each compound was calculated using the following formula: % of remaining activity = (V in the presence of inhibitor/Vcontrol) × 100. An inhibitor, NNGH, was included as a prototypic control inhibitor.
# T1 sequence (P08253 110-446 limits assumed): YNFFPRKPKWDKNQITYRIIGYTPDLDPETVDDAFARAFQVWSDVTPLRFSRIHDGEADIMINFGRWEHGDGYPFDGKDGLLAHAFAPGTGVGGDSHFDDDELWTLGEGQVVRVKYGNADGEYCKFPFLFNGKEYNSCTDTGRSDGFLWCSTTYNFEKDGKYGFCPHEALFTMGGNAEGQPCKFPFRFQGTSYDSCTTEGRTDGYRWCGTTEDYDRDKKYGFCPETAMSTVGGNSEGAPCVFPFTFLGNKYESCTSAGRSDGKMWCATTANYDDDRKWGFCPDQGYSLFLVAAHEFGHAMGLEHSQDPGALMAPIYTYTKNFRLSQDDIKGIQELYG
Compound,IC50 (MMP-2) [nM],solubility [1] [µM],melting point,IC50 (MMP-13) [nM]
"O=C(NO)C1(S(=O)(=O)c2ccc(-n3cc(CCn4nc5ccccc5n4)nn3)cc2)CCOCC1 [Compound 9e, 4-((4-(4-(2-(2H-benzo[d][1–3]triazol-2-yl)ethyl)-1H-1,2,3-triazol-1-yl)phenyl)sulfonyl)-N-hydroxytetrahydro-2H-pyran-4-carboxamide]",10.3 ± 2.8,33.9,,
"O=C(NO)[C@@H](Cc1ccccc1)NS(=O)(=O)c1ccc(-n2cc(CCN3C(=O)c4ccccc4C3=O)nn2)cc1 [Compound 10a, (R)-2-((4-(4-(2-(1,3-dioxoisoindolin-2-yl)ethyl)-1H-1,2,3-triazol-1-yl)phenyl)sulfonamido)-N-hydroxy-3-phenylpropanamide]",3.1 ± 0.9,2.69,177 °C (dec.),
"O=C(NO)[C@@H](Cc1ccccc1)NS(=O)(=O)c1ccc(-n2cc(CCN3C(=O)c4cc(Br)c(Br)cc4C3=O)nn2)cc1 [Compound 10b, (R)-2-((4-(4-(2-(5,6-dibromo-1,3-dioxoisoindolin-2-yl)ethyl)-1H-1,2,3-triazol-1-yl)phenyl)sulfonamido)-N-hydroxy-3-phenylpropanamide]",15 ± 5,3.63,187 to 189 °C,46 ± 21
"O=C(NO)[C@@H](Cc1ccccc1)NS(=O)(=O)c1ccc(-n2cc(CCN3C(=O)c4c(Br)c(Br)c(Br)c(Br)c4C3=O)nn2)cc1 [Compound 10c, (R)-N-hydroxy-3-phenyl-2-((4-(4-(2-(4,5,6,7-tetrabromo-1,3-dioxoisoindolin-2-yl)ethyl)-1H-1,2,3-triazol-1-yl)phenyl)sulfonamido)propenamide]",17 ± 4,0.141,195 to 197 °C,61 ± 18
"O=C(NO)[C@@H](Cc1ccccc1)NS(=O)(=O)c1ccc(-n2cc(CCN3C(=O)c4ccc(Br)cc4C3=O)nn2)cc1 [Compound 10d, (R)-2-((4-(4-(2-(5-bromo-1,3-dioxoisoindolin-2-yl)ethyl)-1H-1,2,3-triazol-1-yl)phenyl)sulfonamido)-N-hydroxy-3-phenylpropanamide]",14 ± 7,2.29,104 °C (dec.),
"Cc1ccc2c(c1)C(=O)N(CCc1cn(-c3ccc(S(=O)(=O)N[C@H](Cc4ccccc4)C(=O)NO)cc3)nn1)C2=O [Compound 10e, (R)-N-hydroxy-2-((4-(4-(2-(5-methyl-1,3-dioxoisoindolin-2-yl)ethyl)-1H-1,2,3-triazol-1-yl)phenyl)sulfonamido)-3-phenylpropanamide]",2.9 ± 1.1,8.32,143 to 145 °C,
